Assay results as given in US20070021419A1, “2-Aminophenyl-4-phenylpyrimidines as kinase inhibitors” (Cyclacel Limited, priority 2003, published 2007).

How the values were obtained:
[1] = target: CDK9/cyclin T1 (Homo sapiens, UniProt P50750); test: Kinase assay, radioactive phosphate incorporation, CDK9/cyclin T1; format: biochemical; conditions: 100 μM ATP, 30° C.; read-out: Kinase inhibition IC50 CDK9/cyclin T1
Procedure, shortened: (§1)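 Recombinant kinase complexes (2-4 μg) with polypeptide substrate were run in pH 7.4 β-glycerophosphate/MOPS buffer, started with 15 mM MgCl2 plus 100 μM ATP including [γ-^32P]-ATP, and incubated at 30° C. Substrate-incorporated ^32P was captured on filter plates, acid-washed and scintillation-counted. Compounds were diluted from DMSO stocks into 10% DMSO buffer.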

[2] = target: T1, Aurora-A (Homo sapiens, UniProt O14965); test: Kinase assay, radioactive phosphate incorporation, Aurora-A; format: biochemical; conditions: 100 μM ATP, 30° C.; read-out: Kinase inhibition IC50 Aurora-A
T1 sequence (O14965 1-403): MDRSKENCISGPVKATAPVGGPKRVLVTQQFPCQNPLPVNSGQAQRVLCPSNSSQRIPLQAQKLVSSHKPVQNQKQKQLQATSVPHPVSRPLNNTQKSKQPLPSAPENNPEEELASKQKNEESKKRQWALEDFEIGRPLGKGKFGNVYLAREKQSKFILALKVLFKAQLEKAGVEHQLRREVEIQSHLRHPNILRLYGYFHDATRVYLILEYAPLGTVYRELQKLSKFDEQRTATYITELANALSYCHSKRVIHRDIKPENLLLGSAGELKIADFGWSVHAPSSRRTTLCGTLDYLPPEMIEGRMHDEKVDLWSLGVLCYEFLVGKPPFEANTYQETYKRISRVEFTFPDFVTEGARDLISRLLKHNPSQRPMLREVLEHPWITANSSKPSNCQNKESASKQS
Description: (§2) The compounds from the examples above were investigated for their ability to inhibit the enzymatic activity of various protein kinases. This was achieved by measurement of incorporation of radioactive phosphate from ATP into appropriate polypeptide substrates. Recombinant protein kinases and kinase complexes were produced or obtained commercially. Assays were performed using 96-well plates and appropriate assay buffers (typically 25 mM β-glycerophosphate, 20 mM MOPS, 5 MM EGTA, 1 mM DTT, 1 mM Na3VO3, pH 7.4), into which were added 2-4 μg of active enzyme with appropriate substrates. The reactions were initiated by addition of Mg/ATP mix (15 mM MgCl2+100 μM ATP with 30-50 kBq per well of [γ-^32P]-ATP) and mixtures incubated as required at 30° C. Reactions were stopped on ice, followed by filtration through p81 filterplates or GF/C filterplates (Whatman Polyfiltronics, Kent, UK). After washing 3 times with 75 mM aq orthophosphoric acid, plates were dried, scintillant added and incorporated radioactivity measured in a scintillation counter (TopCount, Packard Instruments, Pangbourne, Berks, UK). Compounds for kinase assay were made up as 10 mM stocks in DMSO and diluted into 10% DMSO in assay buffer.

[3] = target: CDK7/cyclin H (Homo sapiens, UniProt P50613); test: Kinase assay, radioactive phosphate incorporation, CDK7/cyclin H; format: biochemical; conditions: 100 μM ATP, 30° C.; read-out: Kinase inhibition IC50 CDK7/cyclin H
Procedure, shortened: as §1

[4] = target: GSK3β (Homo sapiens, UniProt P49841); test: Kinase assay, radioactive phosphate incorporation, GSK3β; format: biochemical; conditions: 100 μM ATP, 30° C.; read-out: Kinase inhibition IC50 GSK3β
Procedure, shortened: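 Inhibition is measured as reduced transfer of radioactive phosphate to a polypeptide substrate by 2-4 μg of recombinant enzyme. Mixtures with Mg/ATP (100 μM ATP, 15 mM MgCl2, [γ-32P]-ATP) in pH 7.4 MOPS-based buffer incubate at 30° C, are stopped on ice, filtered and counted.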

[5] = target: CDK2/cyclin E (Homo sapiens, UniProt P24941); test: Kinase assay, radioactive phosphate incorporation, CDK2/cyclin E; format: biochemical; conditions: 100 μM ATP, 30° C.; read-out: Kinase inhibition IC50 CDK2/cyclin E
Procedure, shortened: as §1

[6] = test system: A549; test: 72-h MTT cytotoxicity assay, A549; format: cell-based; conditions: Homo sapiens, read-out: 72-h MTT IC50 A549, A549 cell line
Procedure, shortened: (§3)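 Read-out is MTT reduction by surviving cells, with formazan dye dissolved in DMSO after 4 h dark incubation at 37° C. Treatment lasted 72 h at 37° C in triplicate across a 1/3 dilution series.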

[7] = test system: HT29; test: 72-h MTT cytotoxicity assay, HT29; format: cell-based; conditions: Homo sapiens, HT-29, read-out: 72-h MTT IC50 HT29, HT29 cell line
Procedure, shortened: as §3

[8] = test system: Saos-2; test: 72-h MTT cytotoxicity assay, Saos-2; format: cell-based; conditions: Homo sapiens, read-out: 72-h MTT IC50 Saos-2, Saos-2 cell line
Procedure, shortened: as §3

[9] = test system: transformed human cell lines (A549, HT29, Saos-2); test: 72-h MTT cytotoxicity assay, average of cell lines; format: cell-based; conditions: read-out: 72-h MTT IC50 Average, average of A549, HT29, Saos-2
Procedure, shortened: as §3

[10] = target: CDK4/cyclin D1 (Homo sapiens, UniProt P11802); test: Kinase assay, radioactive phosphate incorporation, CDK4/cyclin D1; format: biochemical; conditions: 100 μM ATP, 30° C.; read-out: Kinase inhibition IC50 CDK4/cyclin D1
Description: as §2

[11] = target: CDK1/cyclin B (Homo sapiens, UniProt P06493); test: Kinase assay, radioactive phosphate incorporation, CDK1/cyclin B; format: biochemical; conditions: 100 μM ATP, 30° C.; read-out: Kinase inhibition IC50 CDK1/cyclin B
Description: as §2

[12] = target: CDK2/cyclin A (Homo sapiens, UniProt P24941); test: Kinase assay, radioactive phosphate incorporation, CDK2/cyclin A; format: biochemical; conditions: 100 μM ATP, 30° C.; read-out: Kinase inhibition IC50 CDK2/cyclin A
Description: as §2

Chain of CDK4/cyclin D1 (P11802 whole entry, species assumed): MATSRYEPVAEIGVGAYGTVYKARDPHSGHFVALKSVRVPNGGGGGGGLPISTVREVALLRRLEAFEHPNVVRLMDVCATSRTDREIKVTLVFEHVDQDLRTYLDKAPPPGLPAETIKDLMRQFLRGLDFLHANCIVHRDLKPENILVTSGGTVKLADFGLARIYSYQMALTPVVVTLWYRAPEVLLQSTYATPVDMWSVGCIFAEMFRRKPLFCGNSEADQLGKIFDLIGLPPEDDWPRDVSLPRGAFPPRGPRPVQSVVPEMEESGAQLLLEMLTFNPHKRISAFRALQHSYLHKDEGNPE
Chain of CDK4/cyclin D1 (P24385 whole entry partner, species assumed): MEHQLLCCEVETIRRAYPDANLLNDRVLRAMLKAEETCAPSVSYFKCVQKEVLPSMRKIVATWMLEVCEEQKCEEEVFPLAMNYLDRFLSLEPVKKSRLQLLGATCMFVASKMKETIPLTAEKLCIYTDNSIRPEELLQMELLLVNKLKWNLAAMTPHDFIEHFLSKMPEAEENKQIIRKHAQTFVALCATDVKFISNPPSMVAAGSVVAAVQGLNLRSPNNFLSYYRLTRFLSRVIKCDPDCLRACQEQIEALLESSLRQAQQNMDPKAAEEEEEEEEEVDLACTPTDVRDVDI
Chain of GSK3β (P49841 whole entry, species assumed): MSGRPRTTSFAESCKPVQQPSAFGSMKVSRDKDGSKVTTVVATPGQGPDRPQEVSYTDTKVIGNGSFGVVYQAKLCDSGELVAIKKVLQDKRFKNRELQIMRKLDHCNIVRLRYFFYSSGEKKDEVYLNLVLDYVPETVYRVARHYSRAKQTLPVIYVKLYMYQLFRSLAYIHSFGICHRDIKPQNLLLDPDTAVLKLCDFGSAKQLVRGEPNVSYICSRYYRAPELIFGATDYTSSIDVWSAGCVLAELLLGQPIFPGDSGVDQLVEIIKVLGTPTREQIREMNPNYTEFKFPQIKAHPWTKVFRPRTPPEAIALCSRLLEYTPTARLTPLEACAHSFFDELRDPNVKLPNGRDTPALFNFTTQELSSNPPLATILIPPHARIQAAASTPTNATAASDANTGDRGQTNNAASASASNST
Chain of CDK7/cyclin H (P50613 whole entry, species assumed): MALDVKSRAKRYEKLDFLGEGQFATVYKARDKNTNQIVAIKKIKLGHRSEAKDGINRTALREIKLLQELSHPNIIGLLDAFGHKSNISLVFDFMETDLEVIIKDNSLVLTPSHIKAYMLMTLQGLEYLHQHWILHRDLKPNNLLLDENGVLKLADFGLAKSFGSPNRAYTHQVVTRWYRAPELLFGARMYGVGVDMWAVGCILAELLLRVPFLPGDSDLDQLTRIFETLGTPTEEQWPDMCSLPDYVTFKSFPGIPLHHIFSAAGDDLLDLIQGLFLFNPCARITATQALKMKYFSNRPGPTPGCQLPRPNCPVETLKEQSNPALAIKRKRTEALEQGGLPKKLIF
Chain of CDK7/cyclin H (P51946 whole entry partner, species assumed): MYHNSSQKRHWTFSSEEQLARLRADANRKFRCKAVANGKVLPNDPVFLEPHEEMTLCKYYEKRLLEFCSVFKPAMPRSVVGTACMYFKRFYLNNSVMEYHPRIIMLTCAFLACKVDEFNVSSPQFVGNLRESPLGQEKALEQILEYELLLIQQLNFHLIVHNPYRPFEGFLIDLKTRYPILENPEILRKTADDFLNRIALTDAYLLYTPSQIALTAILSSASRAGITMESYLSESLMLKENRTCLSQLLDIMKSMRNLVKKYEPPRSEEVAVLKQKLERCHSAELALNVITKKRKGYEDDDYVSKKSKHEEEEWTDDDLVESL
Chain of CDK9/cyclin T1 (P50750 whole entry, species assumed): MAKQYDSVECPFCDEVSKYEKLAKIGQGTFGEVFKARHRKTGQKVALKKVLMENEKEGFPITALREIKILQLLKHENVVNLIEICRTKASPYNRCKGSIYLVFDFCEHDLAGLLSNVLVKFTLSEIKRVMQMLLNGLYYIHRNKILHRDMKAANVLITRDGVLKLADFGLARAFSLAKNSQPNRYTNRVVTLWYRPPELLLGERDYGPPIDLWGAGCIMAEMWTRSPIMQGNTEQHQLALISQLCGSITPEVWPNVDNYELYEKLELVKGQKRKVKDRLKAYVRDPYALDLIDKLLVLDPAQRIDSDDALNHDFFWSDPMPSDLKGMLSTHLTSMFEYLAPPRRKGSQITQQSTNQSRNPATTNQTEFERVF
Chain of CDK9/cyclin T1 (O60563 whole entry partner, species assumed): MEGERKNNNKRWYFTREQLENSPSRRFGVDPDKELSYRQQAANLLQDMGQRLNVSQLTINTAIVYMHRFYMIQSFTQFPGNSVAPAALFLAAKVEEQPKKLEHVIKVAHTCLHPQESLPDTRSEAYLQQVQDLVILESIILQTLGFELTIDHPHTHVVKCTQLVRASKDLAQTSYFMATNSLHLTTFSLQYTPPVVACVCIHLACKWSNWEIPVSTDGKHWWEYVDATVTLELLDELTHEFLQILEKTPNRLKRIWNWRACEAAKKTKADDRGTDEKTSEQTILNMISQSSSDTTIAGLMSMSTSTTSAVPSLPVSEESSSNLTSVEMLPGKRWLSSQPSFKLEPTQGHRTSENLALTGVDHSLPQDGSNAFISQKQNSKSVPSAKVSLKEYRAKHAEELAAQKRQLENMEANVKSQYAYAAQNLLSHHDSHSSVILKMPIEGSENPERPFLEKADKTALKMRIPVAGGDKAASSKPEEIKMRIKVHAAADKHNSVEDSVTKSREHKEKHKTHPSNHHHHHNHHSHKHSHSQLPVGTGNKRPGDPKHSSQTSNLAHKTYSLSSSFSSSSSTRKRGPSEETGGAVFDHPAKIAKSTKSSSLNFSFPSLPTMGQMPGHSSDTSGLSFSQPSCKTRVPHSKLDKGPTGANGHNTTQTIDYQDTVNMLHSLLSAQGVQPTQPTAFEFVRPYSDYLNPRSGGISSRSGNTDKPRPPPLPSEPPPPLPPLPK
Chain of CDK1/cyclin B (P06493 whole entry, species assumed): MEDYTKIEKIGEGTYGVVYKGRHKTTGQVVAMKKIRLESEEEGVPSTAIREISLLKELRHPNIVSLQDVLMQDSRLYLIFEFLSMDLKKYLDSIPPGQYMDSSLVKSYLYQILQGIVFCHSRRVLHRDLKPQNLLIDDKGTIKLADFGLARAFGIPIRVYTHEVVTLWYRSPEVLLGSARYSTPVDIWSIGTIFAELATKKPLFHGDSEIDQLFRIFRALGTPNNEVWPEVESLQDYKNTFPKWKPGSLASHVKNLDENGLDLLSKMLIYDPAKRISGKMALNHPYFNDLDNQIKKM
Chain of CDK1/cyclin B (P14635 whole entry partner, species assumed): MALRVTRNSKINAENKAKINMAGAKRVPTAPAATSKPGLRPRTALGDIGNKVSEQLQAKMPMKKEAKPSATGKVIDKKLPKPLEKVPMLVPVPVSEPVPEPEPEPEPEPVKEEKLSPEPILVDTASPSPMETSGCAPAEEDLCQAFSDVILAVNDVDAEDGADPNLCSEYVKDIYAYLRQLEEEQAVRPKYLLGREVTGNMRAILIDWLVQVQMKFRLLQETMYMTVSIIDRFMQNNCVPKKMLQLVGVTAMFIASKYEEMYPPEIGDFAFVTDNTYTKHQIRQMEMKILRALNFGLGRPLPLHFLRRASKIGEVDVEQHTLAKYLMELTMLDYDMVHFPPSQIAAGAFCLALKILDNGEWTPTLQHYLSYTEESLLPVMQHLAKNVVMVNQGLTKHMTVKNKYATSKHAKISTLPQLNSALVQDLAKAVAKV

Row | Compound | IC50 [1] [nM] | IC50 [2] [nM] | IC50 [3] [nM] | IC50 [4] [nM] | IC50 [5] [nM] | IC50 [10] [nM] | IC50 [11] [nM] | IC50 [12] [nM] | IC50 [6] [nM] | IC50 [7] [nM] | IC50 [8] [nM] | IC50 [9] [nM]
1 | Oc1cccc(Nc2nccc(-c3cccc(C(F)(F)F)c3)n2)c1 [Compound 95, 3-[4-(3-trifluoromethyl-phenyl)-pyrimidin-2-ylamino]-phenol] | 90 | 990 |  |  |  |  |  |  |  |  |  | 
2 | O=[N+]([O-])c1cccc(Nc2nccc(-c3ccc(CN4CCCCC4CO)cc3)n2)c1 (stereo not shown) [Compound 127, (1-{4-[2-(3-Nitro-phenylamino)-pyrimidin-4-yl]-benzyl}-piperidin-2-yl)-methanol] | 900 | 1100 |  |  |  |  |  |  |  |  |  | 
3 | Oc1ccc(Nc2nccc(-c3cccc(F)c3)n2)cc1 [Compound 113, 4-[4-(3-Fluoro-phenyl)-pyrimidin-2-ylamino]-phenol] | 150 | 140 |  |  |  |  |  |  |  |  |  | 
4 | CS(=O)(=O)c1cccc(Nc2nccc(-c3cccc(Cn4cncn4)c3)n2)c1 [Compound 104, (3-Methanesulfonyl-phenyl)-[4-(3-[1,2,4]triazol-1-ylmethyl-phenyl)-pyrimidin-2-yl]-amine] | 60 | 1500 | 6400 | 280 |  |  |  |  |  |  |  | 
5 | O=[N+]([O-])c1cccc(Nc2nccc(-c3ccc(CCn4cncn4)cc3)n2)c1 [Compound 126, (3-Nitro-phenyl)-{4-[4-(2-[1,2,4]triazol-1-yl-ethyl)-phenyl]-pyrimidin-2-yl}-amine] | 90 | 340 |  | 10 |  |  |  |  |  |  |  | 
6 | O=[N+]([O-])c1cccc(Nc2nccc(-c3cccc(CN4CCCC4CNc4ccccc4)c3)n2)c1 (stereo not shown) [Compound 86, (3-Nitro-phenyl)-{4-[3-(2-phenylaminomethyl-pyrrolidin-1-ylmethyl)-phenyl]-pyrimidin-2-yl}-amine] | 130 | 2400 | 670 | 160 | 810 |  |  |  | 49300 | 8900 | 55800 | 38000 ± 25400
7 | O=[N+]([O-])c1cccc(Nc2nccc(-c3cccc(Cl)c3)n2)c1 [Compound 112, [4-(3-Chloro-phenyl)-pyrimidin-2-yl]-(3-nitro-phenyl)-amine] | 70 | 2600 |  | 160 |  |  |  |  |  |  |  | 
8 | Oc1ccc(Nc2nccc(-c3cccc(C(F)(F)F)c3)n2)cc1 [Compound 96, 4-[4-(3-trifluoromethyl-phenyl)-pyrimidin-2-ylamino]-phenol] | 80 | 20 |  |  |  |  |  |  |  |  |  | 
9 | Oc1cccc(Nc2nccc(-c3cc(F)ccc3F)n2)c1 [Compound 114, 3-[4-(2,5-Difluoro-phenyl)-pyrimidin-2-ylamino]-phenol] | 120 | 160 |  |  |  |  |  |  |  |  |  | 
10 | COc1ccc(-c2ccnc(Nc3ccc(N4CCOCC4)cc3)n2)cc1 [Compound 111, [4-(4-Methoxy-phenyl)-pyrimidin-2-yl]-(4-morpholin-4-yl-phenyl)-amine] |  | 520 |  |  |  |  |  |  |  |  |  | 
11 | O=[N+]([O-])c1cccc(Nc2nccc(-c3cccc(CN4CCOCC4)c3)n2)c1 [Compound 39, [4-(3-Morpholin-4-ylmethyl-phenyl)-pyrimidin-2-yl]-(3-nitro-phenyl)-amine] | 110 |  | 38 | 150 | 120 | 2410 | 350 | 2400 | 6800 | 2000 | 8000 | 5600 ± 3200
12 | Oc1cccc(Nc2nccc(-c3cccc(CNCc4ccccc4)c3)n2)c1 [Compound 28, 3-{4-[3-(Benzylamino-methyl)-phenyl]-pyrimidin-2-ylamino}-phenol] | 35 |  | 2600 | 120 | 860 | 2600 | 2100 | 1000 | 8000 | 16000 | 7100 | 10400 ± 4900
13 | CCOc1ccc(-c2ccnc(Nc3cccc(O)c3)n2)cc1 [Compound 109, 3-[4-(4-Ethoxy-phenyl)-pyrimidin-2-ylamino]-phenol] | 140 | 700 |  |  |  |  |  | 2000 |  |  |  | 
14 | CCN(C(C)=O)c1cccc(-c2ccnc(Nc3ccc(OC)cc3)n2)c1 [Compound 23, N-Ethyl-N-{3-[2-(4-methoxy-phenylamino)-pyrimidin-4-yl]-phenyl}-acetamide] | 400 |  | 4300 | 120 | 1100 | 7600 | 3600 | 1200 | 12900 | 3400 | 23000 | 13100 ± 9800

The next lines start with results.

Row | IC50 [1] [nM] | IC50 [2] [nM] | IC50 [3] [nM] | IC50 [4] [nM] | IC50 [5] [nM] | IC50 [10] [nM] | IC50 [11] [nM] | IC50 [12] [nM] | Compound | IC50 [6] [nM] | IC50 [7] [nM] | IC50 [8] [nM] | IC50 [9] [nM]
15 | 60 | 390 | 3900 | 170 |  | 2100 |  |  | COc1ccc(Nc2nccc(-c3cccc(N(C)S(C)(=O)=O)c3)n2)cn1 [Compound 132, N-{3-[2-(6-Methoxy-pyridin-3-ylamino)-pyrimidin-4-yl]-phenyl}-N-methyl-methanesulfonamide] |  |  |  | 
16 | 120 | 960 | 5900 | 40 |  |  |  |  | COc1ccc(Nc2nccc(-c3cccc(CO)c3)n2)cn1 [Compound 125, {3-[2-(6-Methoxy-pyridin-3-ylamino)-pyrimidin-4-yl]-phenyl}-methanol] |  |  |  | 
17 | 50 | 630 |  |  |  |  |  |  | OCc1cccc(-c2ccnc(Nc3cccc(F)c3)n2)c1 [Compound 116, {3-[2-(3-Fluoro-phenylamino)-pyrimidin-4-yl]-phenyl}-methanol] |  |  |  | 
18 | 40 | 720 | 3100 | 70 |  |  |  | 2000 | OCc1cccc(-c2ccnc(Nc3cccc(O)c3)n2)c1 [Compound 115, 3-[4-(3-Hydroxymethyl-phenyl)-pyrimidin-2-ylamino]-phenol] |  |  |  | 
19 | 190 | 6 |  |  |  |  |  |  | Oc1ccc(Nc2nccc(-c3cccc(O)c3)n2)cc1 [Compound 122, 3-[2-(4-Hydroxy-phenylamino)-pyrimidin-4-yl]-phenol] |  |  |  | 
20 | 20 | 1800 |  |  |  |  |  |  | COc1cccc(-c2ccnc(Nc3cccc(F)c3)n2)c1 [Compound 118, (3-Fluoro-phenyl)-[4-(3-methoxy-phenyl)-pyrimidin-2-yl]-amine] |  |  |  | 
21 | 28 |  | 2500 | 51 | 350 | 1100 | 3900 | 3400 | CCN(Cc1cccc(-c2ccnc(Nc3ccc(OC)nc3)n2)c1)C(C)C [Compound 53, (4-{3-[(Ethyl-isopropyl-amino)-methyl]-phenyl}-pyrimidin-2-yl)-(6-methoxy-pyridin-3-yl)-amine] | 2200 | 850 | 3200 | 2100 ± 1200
